The text below walks through data of patent US11945822B2, “Pyrazolo-triazine and/or pyrazolo-pxrimidine derivatives as selective inhibitor of cyclin dependent kinase” (QURIENT CO., LTD., priority 2018, dated 2024).

The target of experiment [1] is T1, CDK5/p25 (Homo sapiens, UniProt Q00535).
T1 construct: purchased Invitrogen PR8543B
The experiment can be described thus: Enzymatic assay for CDK5 (FRET based LANCE Ultra kinase assay). In kind it is biochemical. Conditions: read-out: CDK5 enzymatic activity (IC50 activity range). The method in brief: (§1)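 TR-FRET (LANCE Ultra) kinase assay at ATP Km, ULight-MBP peptide substrate (68 nM), 8-dose 4-fold compound series in DMSO. Enzymes: […]; 60 min at 23° C., stopped with EDTA plus Eu-anti-phospho-MBP antibody, read 665/615 nm after 60 min.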
Background: Time-resolved FRET reads energy transfer from a long-lived donor to a nearby acceptor.

Experiment [2] concerns OVCAR-3. The experiment can be described thus: Cellular OVCAR-3 viability assay (CellTiter-Glo, 72 hours). In kind it is cell-based. Conditions: Homo sapiens. The source says:
Human T-cell acute lymphoblastic leukemia cell line, MOLT-4 (ATCC, Cat #CRL-1582), Human multiple myeloma cell line, RPMI-8226 (Invitrogen, Cat #22400-089) and MM.1S (ATCC, Cat #CRL-2974), NSCLC (Non-small cell lung cancer) cell line H460 (ATCC, Cat #HTB-177), Human colon colorectal carcinoma cell line HCT116 (ATCC, Cat #CCL-247), Human acute monocytic leukemia cell line MV4-11 (ATCC, Cat #CRL-9591), OVCAR-3 (ATCC, Cat #HTB-161) and A2780 (ECACC, Cat #93112519) were obtained from ATCC. Cells were grown in RPMI-1640 media (Invitrogen, Cat #22400-089) supplemented with 10% FBS (Invitrogen, Cat #10099141) and 1% penicillin/streptomycin (Invitrogen, Cat #15070063) and cultured at 37° C., 5% CO2 in a humidified chamber. All cell lines were routinely tested for mycoplasma.
The effect of the CDK7 inhibitor to inhibit the growth of target cancer cells was evaluated through the 72 hours time period of viability assay. Briefly, the candidate cell line ware plated in 96 well plate at the following density of cells respectively. 1×10^4 cells/well for MOLT-4, RPMI-8226, MV4-11 and MM.1S, 5×10^3 for H460, HCT116 and OVCAR-3 and IX 10^3 for A2780. After 24 hours, the cells were treated with various concentrations of the compound (ranging from 0.0015 uM to 10 uM). DMSO solvent without compound served as a control and final DMSO concentration less than 0.1%. After 72 hours of incubation at 37° C., 5% CO2 incubator, cells were analyzed for the viability using the CellTiter-Glo Luminescent Cell Viability Assay (Promega, Cat #G7570). All viability assays were performed in duplicate and Luminescence was read using an Envision (Perkin Elmer, USA). Data was analyzed using XLfit software.

Experiment [3] concerns the target T2, CDK7/Cyclin H/MNAT1 (Homo sapiens, UniProt P50613).
T2 construct: purchased Invitrogen PR6749B
Put plainly: Enzymatic assay for CDK7 (FRET based LANCE Ultra kinase assay). Type of experiment: biochemical. Conditions: for IC50: read-out: CDK7 enzymatic activity (IC50 activity range). The gist of the method: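 LANCE Ultra TR-FRET kinase assay using a ULight-labeled peptide substrate and a Eu-labeled anti-phospho antibody, with ATP at its Km. Purified CDK/cyclin complex was added to compound after brief centrifugation.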

Experiment [4] concerns the target T3, CDK2/Cyclin A (Homo sapiens, UniProt P24941).
T3 construct: purchased Invitrogen PV6290
The experiment can be described thus: Enzymatic assay for CDK2 (FRET based LANCE Ultra kinase assay). Type of experiment: biochemical. Conditions: read-out: CDK2 enzymatic activity (IC50 activity range). The gist of the method: as §1

Experiment [5] has as its system A2780. Put plainly: Cellular A2780 viability assay (CellTiter-Glo, 72 hours). Conditions: Homo sapiens. In kind it is cell-based. The gist of the method:
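Cells seeded at 1×10^4/well (MM.1S), 5×10^3 (OVCAR-3) or 1×10^3 (A2780), grown in RPMI-1640 with 10% FBS. After 24 h, compound added at 0.0015–10 uM, final DMSO below 0.1%, for 72 h at 37° C. Viability read by CellTiter-Glo luminescence in duplicate, with curve fitting.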
A general note: In ATP-based viability assays light output follows the ATP content of the culture.

Experiment [6] concerns the target T4, CDK1/Cyclin B (Homo sapiens, UniProt P06493).
T4 construct: purchased Invitrogen PR4768C
The experiment can be described thus: Enzymatic assay for CDK1 (FRET based LANCE Ultra kinase assay). Type of experiment: biochemical. Conditions: read-out: CDK1 enzymatic activity (IC50 activity range). The gist of the method: as §1

The test system of experiment [7] is H460. Put plainly: Cellular H460 viability assay (CellTiter-Glo, 72 hours). Type of experiment: cell-based. Conditions: Homo sapiens, NCI-H460. The gist of the method: (§2)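 Cells plated in 96 wells and exposed to compound 72 h at 37 °C, 5% CO2, final DMSO below 0.1%, DMSO control. Viability by CellTiter-Glo luminescence, duplicate.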
The test system of experiment [8] is MV4-11. Put plainly: Cellular MV4-11 viability assay (CellTiter-Glo, 72 hours). In kind it is cell-based. Conditions: Homo sapiens. The method in brief:
as §2

T4 sequence (P06493 whole entry): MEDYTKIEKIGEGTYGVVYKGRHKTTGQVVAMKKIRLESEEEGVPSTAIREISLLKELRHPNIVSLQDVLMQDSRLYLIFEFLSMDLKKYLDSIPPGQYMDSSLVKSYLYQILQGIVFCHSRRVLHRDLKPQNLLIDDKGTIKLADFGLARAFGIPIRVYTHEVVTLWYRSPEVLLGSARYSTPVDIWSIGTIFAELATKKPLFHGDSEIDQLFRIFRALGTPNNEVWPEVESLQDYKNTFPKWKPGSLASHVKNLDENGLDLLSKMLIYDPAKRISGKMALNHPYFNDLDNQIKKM
T4 sequence (P14635 whole entry partner): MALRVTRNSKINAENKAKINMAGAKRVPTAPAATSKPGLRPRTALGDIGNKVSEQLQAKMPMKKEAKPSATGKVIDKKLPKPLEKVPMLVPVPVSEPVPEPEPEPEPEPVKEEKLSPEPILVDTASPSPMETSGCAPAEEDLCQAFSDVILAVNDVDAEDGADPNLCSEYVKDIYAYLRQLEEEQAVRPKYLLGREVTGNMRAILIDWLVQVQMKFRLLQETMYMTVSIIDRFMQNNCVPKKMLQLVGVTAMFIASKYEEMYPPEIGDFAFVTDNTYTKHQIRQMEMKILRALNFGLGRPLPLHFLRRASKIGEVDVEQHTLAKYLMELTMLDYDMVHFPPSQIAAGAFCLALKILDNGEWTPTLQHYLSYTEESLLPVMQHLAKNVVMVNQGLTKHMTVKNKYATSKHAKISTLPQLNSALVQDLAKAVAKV
T1 sequence (Q00535 whole entry): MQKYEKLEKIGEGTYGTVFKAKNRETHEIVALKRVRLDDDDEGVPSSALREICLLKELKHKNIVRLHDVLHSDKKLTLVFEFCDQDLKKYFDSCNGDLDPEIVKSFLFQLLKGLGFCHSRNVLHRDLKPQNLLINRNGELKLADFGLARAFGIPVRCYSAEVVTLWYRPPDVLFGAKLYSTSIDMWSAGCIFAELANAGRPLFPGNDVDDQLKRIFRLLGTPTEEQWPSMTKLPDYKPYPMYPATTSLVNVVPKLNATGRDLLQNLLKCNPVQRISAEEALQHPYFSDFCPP
T1 sequence (Q15078 99-307 partner limits assumed): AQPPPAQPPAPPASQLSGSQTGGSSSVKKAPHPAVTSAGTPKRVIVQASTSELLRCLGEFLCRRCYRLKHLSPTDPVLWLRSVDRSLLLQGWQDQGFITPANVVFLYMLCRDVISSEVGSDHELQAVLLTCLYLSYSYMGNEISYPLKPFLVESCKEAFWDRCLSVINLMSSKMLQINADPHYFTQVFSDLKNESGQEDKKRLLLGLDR
T2 sequence (P50613 whole entry): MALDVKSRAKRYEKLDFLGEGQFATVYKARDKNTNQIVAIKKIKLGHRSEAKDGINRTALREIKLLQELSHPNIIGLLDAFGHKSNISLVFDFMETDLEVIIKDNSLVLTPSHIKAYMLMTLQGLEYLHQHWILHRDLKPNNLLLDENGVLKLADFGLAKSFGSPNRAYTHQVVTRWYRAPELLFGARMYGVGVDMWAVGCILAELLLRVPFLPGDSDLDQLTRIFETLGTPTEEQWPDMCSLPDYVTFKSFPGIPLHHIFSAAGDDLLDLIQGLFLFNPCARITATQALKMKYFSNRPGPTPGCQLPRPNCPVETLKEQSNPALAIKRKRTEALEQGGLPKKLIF
T2 sequence (P51946 whole entry partner): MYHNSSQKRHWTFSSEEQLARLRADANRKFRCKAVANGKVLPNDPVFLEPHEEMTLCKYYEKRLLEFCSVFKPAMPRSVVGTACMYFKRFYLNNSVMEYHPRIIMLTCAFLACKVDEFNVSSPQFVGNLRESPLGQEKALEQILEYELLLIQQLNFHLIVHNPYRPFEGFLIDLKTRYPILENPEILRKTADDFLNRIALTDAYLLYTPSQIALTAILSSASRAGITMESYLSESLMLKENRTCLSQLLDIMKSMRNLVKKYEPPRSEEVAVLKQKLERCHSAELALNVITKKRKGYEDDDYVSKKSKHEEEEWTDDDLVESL
T2 sequence (P51948 whole entry partner): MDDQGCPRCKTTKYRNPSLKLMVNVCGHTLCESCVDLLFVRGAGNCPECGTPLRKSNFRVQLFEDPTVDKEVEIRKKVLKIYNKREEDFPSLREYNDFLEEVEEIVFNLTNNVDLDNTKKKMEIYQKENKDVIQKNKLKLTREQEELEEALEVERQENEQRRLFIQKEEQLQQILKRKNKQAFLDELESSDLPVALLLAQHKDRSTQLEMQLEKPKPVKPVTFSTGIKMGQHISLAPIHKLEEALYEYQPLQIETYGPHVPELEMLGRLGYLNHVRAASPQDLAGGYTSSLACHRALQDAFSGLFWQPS

As for `CC(C)c1cnn2c(NCc3ccccc3-c3nccc4cc(NC(=O)CCCN(C)C)ccc34)nc(NC[C@H]3CCNC[C@@H]3O)nc12` [Compound 278], the half-inhibitory concentration (IC50) in experiment [1] was over 1000 nM; in experiment [2] it was over 10000 nM; in experiment [3] it was under 100 nM; in experiment [4], over 1000 nM; in experiment [5] it was 1000 to 10000 nM; in experiment [6], over 1000 nM. Moreover, in experiment [3], the “CDK1/CDK7: Selectivity of CDK7 inhibition over CDK1 inhibition” value is “A (A=greater than 200 fold)”. In addition, the “CDK2/CDK7: Selectivity of CDK7 inhibition over CDK2 inhibition” value in experiment [3] is on record as “A (A=greater than 200 fold)”. Besides, the “CDK5/CDK7: Selectivity of CDK7 inhibition over CDK5 inhibition” value in experiment [3] was “A (A=greater than 200 fold)”.
Turning to `CC(C)c1cnn2c(NCc3ccccc3-c3ccc4ccccc4n3)nc(N3CCNC[C@H]3CO)nc12` [Compound 271], the IC50 is over 1000 nM in experiment [1]; under 1000 nM in experiment [7]; at most 1000 nM in experiment [2]; under 1000 nM in experiment [8]; under 100 nM in experiment [3]; over 1000 nM in experiment [4]. The IC50 in experiment [5] is at most 1000 nM; in experiment [6], over 1000 nM. The “CDK1/CDK7: Selectivity of CDK7 inhibition over CDK1 inhibition” value in experiment [3] is given as “A (A=greater than 200 fold)”. In addition, the “CDK2/CDK7: Selectivity of CDK7 inhibition over CDK2 inhibition” value in experiment [3] was “A (A=greater than 200 fold)”. The “CDK5/CDK7: Selectivity of CDK7 inhibition over CDK5 inhibition” value in experiment [3] is “A (A=greater than 200 fold)”.
With `CC(C)c1cnn2c(NCc3ccccc3-c3ccc4ccccc4n3)nc(N[C@H]3CC[C@@H](O)CC3)nc12` [Compound 265], the IC50 in experiment [1] is over 1000 nM; in experiment [7], under 1000 nM; in experiment [2], 1000 to 10000 nM; in experiment [8] it was 1000 to 10000 nM; in experiment [3] it was under 100 nM; in experiment [4] it was over 1000 nM. For the same molecule, the IC50 was at most 1000 nM in experiment [5] and over 1000 nM in experiment [6]. In addition, the “CDK1/CDK7: Selectivity of CDK7 inhibition over CDK1 inhibition” value in experiment [3] is recorded as “A (A=greater than 200 fold)”. Also, the “CDK2/CDK7: Selectivity of CDK7 inhibition over CDK2 inhibition” value in experiment [3] is listed as “A (A=greater than 200 fold)”. For the same molecule, in experiment [3], the “CDK5/CDK7: Selectivity of CDK7 inhibition over CDK5 inhibition” value is recorded as “A (A=greater than 200 fold)”.
With `CC(C)c1cnn2c(NCc3ccccc3-c3ccc4ccccc4n3)nc(N[C@H]3CC[C@H](O)CC3)nc12` [Compound 266], the concentration for half-maximal inhibition (IC50) is over 1000 nM in experiment [1]; under 1000 nM in experiment [7]; at most 1000 nM in experiment [2]; 1000 to 10000 nM in experiment [8]; under 100 nM in experiment [3]; over 1000 nM in experiment [4]. Further, the IC50 in experiment [5] is at most 1000 nM; in experiment [6] it was over 1000 nM. The “CDK1/CDK7: Selectivity of CDK7 inhibition over CDK1 inhibition” value in experiment [3] is “A (A=greater than 200 fold)”. Besides, in experiment [3], the “CDK2/CDK7: Selectivity of CDK7 inhibition over CDK2 inhibition” value is recorded as “A (A=greater than 200 fold)”. Besides, the “CDK5/CDK7: Selectivity of CDK7 inhibition over CDK5 inhibition” value in experiment [3] was “A (A=greater than 200 fold)”.

The term IC50 denotes the point on the concentration scale where inhibition reaches its midpoint.
